In US11357873B2, “Chiral cyclen compounds and their uses” (THE HONG KONG POLYTECHNIC UNIVERSITY, priority 2016, dated 2022):
Read-outs that look alike come from different tables or passages of the source. One block for each compound: values may come before it.

Assays:
[1] = amine bond, 12-membered ring
[2] = Stability of isomers on heating and storage by 1H NMR; type: physicochemical; settings: for isomer ratio after heating (lack of racemization): solution of [EuL2A]− and [EuL2B]− at 1:0.25, 90° C. for 3 days
From the text: (§1) In aqueous solution, the ratio of TSA/SA isomers of Eu(III) and Yb(III) complexes in DOTA-like systems can be easily determined by ^1H NMR as two well-defined sets of six resonances are observed for the diastereotopic protons in CH2CO and NCH2CH2N.^13 Although the Gd(III) complexes cannot be analyzed by NMR, their ratio of isomers are expected to be similar to those of the Eu(III) and Yb(III) complexes because the ionic radius of Gd(III) is similar to the ionic radius of Eu(III) and Yb(III).
(§2) The conformational properties of the lanthanide complexes were investigated by both HPLC and NMR spectroscopy. The ^1H NMR spectra of the four europium chiral DOTA-based complexes are compared in FIG. 3. […] In the cases of [EuL3]^− and [EuL4]^−, the twisted antiprismatic isomers were more dominant, with the ratio of 6.52 for [EuL3]^− and 13.50 for [EuL4]^− observed.
The stability of the complexes toward racemization over time was also monitored by ^1H NMR (FIG. 20). […] Nevertheless, the original set of peaks existed predominately when the pD was adjusted from 6.0 to 7.5 and further heated for 12 h at 90° C. It can be observed that while the purity of the ligands may not be highly satisfactory, pure complexes could be obtained by HPLC separation after complexation. This phenomenon indicates the purification of DOTA-based ligands should be handled with care.

[3] = Absorption and photoluminescence (quantum yield, lifetime, q); type: physicochemical; set-up: λabs(max): unit not given here
Description: (§3) Absorption spectra of complexes were measured with HP UV-8453 spectrophotometer. Steady-state room temperature photoluminescence measurements were performed with an Edinburgh Instrument FLSP920 spectrophotometer equipped with a Xe900 continuous xenon lamp, μF920 microsecond flash lamp and a single photon counting photomultiplier tube. Spectra were corrected with the bundled F900 software. Solution-state measurements were conducted using quartz curettes of 10 mm path length. CPL measurements were conducted on a custom built spectrometer^63 (in Durham University) consisting of a laser driven light source (Energetiq EQ-99 LDLS, spectral range 170 to 2100 nm) coupled to an Acton SP2150 monochromator (600 g/nm, 300 nm Blaze) that allows excitation wavelengths to be selected with a 6 nm FWHM band-pass. The collection of the emitted light was facilitated (90° angle set up, 1 cm path length quartz curette) by a Lock-In Amplifier (Hinds Instruments Signaloc 2100) and Photoelastic Modulator (Hinds Instruments PEM-90). The differentiated light was focused onto an Acton SP2150 monochromator (1200 g/nm, 500 nm Blaze) equipped with a high sensitivity cooled Photo Multiplier Tube (H10723-20 Extended red-multialkali PMT based photosensor (5V)). Spectra were recorded using a 5 spectral average sequence in the range of 570-720 nm with 0.5 nm spectral intervals and 500 μs integration time. The recorded CPL spectrum underwent a 25% Fourier transformation smoothening protocol using Origin 8.0 Software (Origin Labs) to enhance appearance (all calculations were carried out using raw spectral data).
The shift in absorption is caused by electronic communication between the electropositive lanthanide center and the chromophore. […] These are not observed for 11, however, as we believe the steric effect of the planar phenyl ring of the benzyl group could not be alleviated by appropriate rotation, whereas that of the isobutyl group could.
The luminescence quantum yields of the complexes are decent in water and HEPES solution, although they are much higher in DMSO, due to the nonradiative quenching by O—H oscillators of water molecules in the second coordination sphere (Table 6). The intrinsic quantum yields^61—a calculated value evaluating the quantum yield of Eu(III) via direct metal excitation—of the complexes are calculated, and, as expected, the values are very similar, except for 10. The higher value corroborates with the shift in absorption maximum, for which we believe the reason is due to a shorter europium—chromophore distance and better interaction. On the other hand, the sensitization efficiencies of the complexes vary. […] The relatively remarkable ηsens of 13 is attributed to its structural rigidity, as both the tetraaza backbone and the acetate arms are modified with a chrial substituent, i.e., double chirality. The double chirality is also attributed for the increase in luminescence quantum yield compared to that of 12a/12b.

[4] = Circularly polarized luminescence (CPL), dissymmetry factor glum; type: physicochemical; settings: wavelength in parentheses in the cell
Description: as §3, with “Steady-state” for “Absorption spectra of complexes were measured with HP UV-8453 spectrophotometer. Steady-state”, “time.” for “time. The recorded CPL spectrum underwent a 25% Fourier transformation smoothening protocol using Origin 8.0 Software (Origin Labs) to enhance appearance (all calculations were carried out using raw spectral data).”

[5] = TSA/SA isomer ratio of lanthanide complexes by 1H NMR; type: physicochemical; settings: 25° C., 400 MHz, pD 7.0, aqueous solution
From the text: as §1, §2
The ratio of TSA/SA isomers for [YbL1]^− (0.28) and [YbL2]^− (0.93) was relatively lower than that of the europium analogues. The ratio change from [YbL2]^− to [YbL3]^− was also not as apparent.

SMILES: CC(C)(C)OC(=O)NCCCC[C@H]1CN(Cc2ccccc2)[C@@H](CCCCNC(=O)OC(C)(C)C)CN(Cc2ccccc2)[C@@H](CCCCNC(=O)OC(C)(C)C)CN(Cc2ccccc2)[C@@H](CCCCNC(=O)OC(C)(C)C)CN1Cc1ccccc1
ring closure, isolated yield ([1]; from CC(C)(C)OC(=O)NCCCCC1C[N@@]1Cc1ccccc1, TsOH.H2O, MeCN, 82.1 mM, 25.0 °C): 24.5%

SMILES: CC(C)C[C@H]1CN(Cc2ccccc2)[C@@H](CC(C)C)CN(Cc2ccccc2)[C@@H](CC(C)C)CN(Cc2ccccc2)[C@@H](CC(C)C)CN1Cc1ccccc1
ring closure, isolated yield [1]: 28.3%

SMILES: CC[C@H]1CN(Cc2ccccc2)[C@@H](CC)CN(Cc2ccccc2)[C@@H](CC)CN(Cc2ccccc2)[C@@H](CC)CN1Cc1ccccc1
ring closure, isolated yield [1]: 27.5%

SMILES: O=[N+]([O-])c1ccc(C[C@H]2CN(Cc3ccccc3)[C@@H](Cc3ccc([N+](=O)[O-])cc3)CN(Cc3ccccc3)[C@@H](Cc3ccc([N+](=O)[O-])cc3)CN(Cc3ccccc3)[C@@H](Cc3ccc([N+](=O)[O-])cc3)CN2Cc2ccccc2)cc1
ring closure, isolated yield ([1]; from O=[N+]([O-])c1ccc(CC2C[N@@]2Cc2ccccc2)cc1, TsOH.H2O, MeCN, 84.7 mM, 25.0 °C): 20.6%

SMILES: c1ccc(C[C@H]2CN(Cc3ccccc3)[C@@H](Cc3ccccc3)CN(Cc3ccccc3)[C@@H](Cc3ccccc3)CN(Cc3ccccc3)[C@@H](Cc3ccccc3)CN2Cc2ccccc2)cc1
ring closure, isolated yield [1]: 25%

SMILES: CC[C@H]1CN(CC(=O)[O-])[C@@H](CC)CN(CC(=O)[O-])[C@@H](CC)CN(CC(=O)[O-])[C@@H](CC)CN1CC(=O)[O-].[Eu+3] (single isomer, unassigned) [[EuL2A]^−]
isomer ratio after heating (lack of racemization) [2]: remained at the same ratio

SMILES: CC[C@H]1CN(CC(=O)[O-])[C@@H](CC)CN(CC(=O)[O-])[C@@H](CC)CN(CC(=O)[O-])[C@@H](CC)CN1CC(=O)[O-].[Eu+3] (single isomer, unassigned) [[EuL2B]^−]
isomer ratio after heating (lack of racemization) [2]: remained at the same ratio

SMILES: CC[C@@H]1CN(CC(=O)[O-])[C@H](CC)CN(Cc2cc(C#Cc3c(OC)cc(OC)cc3OC)cc(P(C)(=O)[O-])n2)[C@H](CC)CN(CC(=O)[O-])[C@H](CC)CN1CC(=O)[O-].[Eu+3] [Complex 9]
R, I(5D0 → 7F2)/I(5D0 → 7F1) ([3]; asymmetry ratio, room temperature, 10 in MeOH, 11 in DMSO): 2.44 | q (Parker's) ([3]; from lifetimes in H2O and D2O, first value of cell): 0.02 | q (Horrocks') ([3]; from lifetimes in H2O and D2O, second value of cell): 0.05 | ΦEuEu (%) ([3]; intrinsic quantum yield, calculated value): 28.1% | τD2O/MeOD ([3]; luminescence lifetime, 5D0 → 7F2 transition, D2O (MeOD for 10)): 1.77 ms | τH2O/MeOH ([3]; luminescence lifetime, 5D0 → 7F2 transition, H2O (MeOH for 10)): 1.20 ms | ΦDMSO (%) ([3]; luminescence quantum yield in DMSO): 53.0% | ΦH2O/MeOH (%) ([3]; luminescence quantum yield relative to quinine sulfate in 0.1M H2SO4, H2O (MeOH for 10, insoluble in H2O)): 14.9% | ΦHEPES (%) ([3]; luminescence quantum yield, 0.1M HEPES buffer, pH 7.4): 14.3% | λabs(max) ([3]; room temperature, 10 measured in MeOH, 11 in DMSO): 356 | ηsens (%) ([3]; sensitization efficiency, calculated according to ref 61): 53.0% | glum ΔJ = 1 (λ) DMSO ([4]; DMSO): +0.17 (591) | glum ΔJ = 3 (λ) DMSO ([4]; DMSO): +0.13 (657) | glum ΔJ = 1 (λ) H2O ([4]; H2O): +0.12 (591) | glum ΔJ = 3 (λ) H2O ([4]; H2O): +0.21 (653) | 1H NMR spectrum after storage (stability toward racemization) ([2]; 9 months at room temperature, pD 6.0, D2O): consistent after 9 months of storage | 1H NMR spectrum upon heating (stability toward racemization) ([2]; heating at 90° C.): a new set of peaks appeared

SMILES: C[C@H]1CN(CC(=O)[O-])[C@@H](C)CN(CC(=O)[O-])[C@@H](C)CN(CC(=O)[O-])[C@@H](C)CN1CC(=O)[O-].[Eu+3] [[EuL1]^−]
isomer ratio of TSA/SA [5]: 0.75

More lines, now with the values ahead:

isomer ratio of TSA/SA [5]: 1.27
SMILES: CC[C@H]1CN(CC(=O)[O-])[C@@H](CC)CN(CC(=O)[O-])[C@@H](CC)CN(CC(=O)[O-])[C@@H](CC)CN1CC(=O)[O-].[Eu+3] [[EuL2]^−]

isomer ratio of TSA/SA [5]: 6.52
SMILES: CC(C)C[C@H]1CN(CC(=O)[O-])[C@@H](CC(C)C)CN(CC(=O)[O-])[C@@H](CC(C)C)CN(CC(=O)[O-])[C@@H](CC(C)C)CN1CC(=O)[O-].[Eu+3] [[EuL3]^−]

isomer ratio of TSA/SA [5]: 13.50
SMILES: O=C([O-])CN1CC(Cc2ccccc2)N(CC(=O)[O-])CC(Cc2ccccc2)N(CC(=O)[O-])CC(Cc2ccccc2)N(CC(=O)[O-])CC1Cc1ccccc1.[Eu+3] (stereo not shown) [[EuL4]^−]

isomer ratio of TSA/SA [5]: 0.28
SMILES: C[C@H]1CN(CC(=O)[O-])[C@@H](C)CN(CC(=O)[O-])[C@@H](C)CN(CC(=O)[O-])[C@@H](C)CN1CC(=O)[O-].[Yb+3] [[YbL1]^−]

isomer ratio of TSA/SA [5]: 0.93
SMILES: CC[C@H]1CN(CC(=O)[O-])[C@@H](CC)CN(CC(=O)[O-])[C@@H](CC)CN(CC(=O)[O-])[C@@H](CC)CN1CC(=O)[O-].[Yb+3] [[YbL2]^−]

isomer ratio of TSA/SA [5]: essentially one TSA isomer
SMILES: O=C([O-])CN1CC(Cc2ccccc2)N(CC(=O)[O-])CC(Cc2ccccc2)N(CC(=O)[O-])CC(Cc2ccccc2)N(CC(=O)[O-])CC1Cc1ccccc1.[Yb+3] (stereo not shown) [[YbL4]^−]
